Laboratory results from article PMC8000889, “Phenolic Compounds from Leaves and Flowers of Hibiscus roseus: Potential Skin Cosmetic Applications of an Under-Investigated Species” (Plants, 2021).
In brackets after ≈: the same amount, converted by molar mass.

Target: T1, collagenase (Collagenase Activity Assay Kit, Sigma-Aldrich)
T1 construct: gene colG
Experiment: FALGPA hydrolysis, absorbance at […] nm
Format: biochemical
Conditions: substrate FALGPA; 96-well plate, 200 μL, followed for 20 min

For `O=c1c(O)c(-c2ccc(O)c(O)c2)oc2cc(O)cc(O)c12` [quercetin], the IC50 was 5.6 ± 0.7 µg/mL (≈ 18.5 µM).
